Consider 8 molecules from article PMC11496704, “Synthesis and cytotoxicity studies of novel N-arylbenzo[h]quinazolin-2-amines” (Beilstein Journal of Organic Chemistry, 2024).

Read-outs that look alike come from different tables or passages of the source.

Holding throughout (assay type): cell-based
For series [1], the system named is seven representative tumor cell lines. The experiment in a line: Cytotoxicity IC50, summary over several cell lines. The conditions noted are these: read-out: IC50 (span over cell lines). Here is the method:
For details see: ref. [2] and Supporting Information File 1, Table S1. […] [table] Cell culture. Skin normal fibroblastic cells are purchased from Lonza (Basel, Switzerland), HuH-7, Caco-2, MDA-MB-231, HCT-116, PC3, MCF7 and NCI-H727 cancer cell lines were obtained from ATCC (American Type Culture Collection). Cells are grown at 37 °C, 5% CO2 in ATCC recommended media: DMEM for HuH-7, MDA-MB-231, MDA-MB-468 and fibroblast, EMEM for MCF7 and CaCo-2, McCoy’s for HCT-116 and RPMI for PC3 and NCI-H727. All culture media are supplemented by 10% of FBS, 1% of penicillin-streptomycin and 2 mM glutamine. Both studies have been performed following the protocols described in a previous paper, see ref. [2].

For another series, the system named is MDA-MB-231. The experiment in a line: Cytotoxicity secondary screen (IC50). The conditions noted are these: Homo sapiens, 48 h exposure, mean of triplicates, NE: no effect.
The next series concerns HuH-7. The experiment in a line: Cytotoxicity secondary screen (IC50). The conditions noted are these: Homo sapiens, 48 h exposure, mean of triplicates, NE: no effect. The protocol: (§1) Cell culture. Skin normal fibroblastic cells are purchased from Lonza (Basel, Switzerland), HuH-7, Caco-2, MDA-MB-231, HCT-116, PC3, MCF7 and NCI-H727 cancer cell lines were obtained from ATCC (American Type Culture Collection). Cells are grown at 37 °C, 5% CO2 in ATCC recommended media: DMEM for HuH-7, MDA-MB-231, MDA-MB-468 and fibroblast, EMEM for MCF7 and CaCo-2, McCoy’s for HCT-116 and RPMI for PC3 and NCI-H727. All culture media are supplemented by 10% of FBS, 1% of penicillin-streptomycin and 2 mM glutamine.
(§2) Both studies have been performed following the protocols described in a previous paper, see ref. [2].

Series [2] concerns PC3. The experiment in a line: Cytotoxicity secondary screen (IC50). The conditions noted are these: Homo sapiens, PC-3; 48 h exposure, mean of triplicates; NE: no effect. The protocol:
as §1, §2

Another series has as its system normal human fibroblasts. The experiment in a line: Cytotoxicity secondary screen (IC50). The conditions noted are these: Fibroblast, 48 h exposure, mean of triplicates, NE: no effect, highest concentration tested 25 μM, read-out: IC50 Fibro. The protocol: as §1, §2
Series [3] has as its system PC3. The experiment in a line: Cytotoxicity primary screen (single dose). Further details: viability: dose or concentration left out as unconfirmed. To be noted: Homo sapiens, PC-3, 48 h exposure, mean of triplicates, read-out: percentage of cell survival over DMSO control, PC3; for viability at 25 µM: single dose 25 μM. Here is the method:
(§3) Next, we performed a cytotoxicity screening of the nineteen molecules 4a–s, at 25 μM, investigating seven representative cancer cell lines: hepatocellular carcinoma HuH-7, colorectal adenocarcinoma CaCo-2, breast carcinoma MDA-MB-231 and MDA-MB-468, colorectal carcinoma HCT-116, prostate carcinoma PC3 and breast carcinoma MCF7. […] For details see: ref. [2] and Supporting Information File 1, Table S1.
as §1, §2
(§4) Table S1: Cytotoxicity studies (single dose at 25µM) of N-arylbenzo[h]quinazolin-2-amines 4a–s
(§5) The toxicity is expressed as the percentage of cell survival (from 100 % to 0 %) over DMSO control after 48 h exposure (mean of triplicates).
(§6) Effect of the solvent (DMSO) was studied at 0.25%.

The subject of series [4] is MCF7. The experiment in a line: Cytotoxicity primary screen (single dose). Also on record: viability: dose or concentration left out as unconfirmed. To be noted: Homo sapiens, single dose 25 μM, 48 h exposure, mean of triplicates, read-out: percentage of cell survival over DMSO control, MCF7. The protocol:
as §3, §1, §2, §4, §5, §6

A further series relates to MDA231. The experiment in a line: Cytotoxicity primary screen (single dose). Further details: viability: dose or concentration left out as unconfirmed. To be noted: Homo sapiens, MDA-MB-231, 48 h exposure, mean of triplicates, read-out: percentage of cell survival over DMSO control, MDA231; for viability at 25 µM: single dose 25 μM. The protocol: as §3, §1, §2, §4, §5, §6

The next series has as its system HCT116. The experiment in a line: Cytotoxicity primary screen (single dose). Further details: viability: dose or concentration left out as unconfirmed. The conditions noted are these: Homo sapiens, HCT-116; single dose 25 μM, 48 h exposure, mean of triplicates; read-out: percentage of cell survival over DMSO control, HCT116. The protocol:
as §3, §1, §2, §4, §5, §6

A further series relates to MDA468. The experiment in a line: Cytotoxicity primary screen (single dose). Further details: viability: dose or concentration left out as unconfirmed. To be noted: 48 h exposure, mean of triplicates, read-out: percentage of cell survival over DMSO control, MDA468; for viability at 25 µM: single dose 25 μM. The protocol: as §3, §1, §2, §4, §5, §6
A further series deals with MDA-MB-468. The experiment in a line: Cytotoxicity secondary screen (IC50). To be noted: Homo sapiens, 48 h exposure, mean of triplicates, NE: no effect.
Series [5] has as its system Caco-2. The experiment in a line: Cytotoxicity primary screen (single dose). The conditions noted are these: 48 h exposure, mean of triplicates. The protocol: as §3, §1, §2, §4, §5, §6
Series [6] concerns HuH7. The experiment in a line: Cytotoxicity primary screen (single dose). To be noted: Homo sapiens, Huh-7; single dose 25 μM, 48 h exposure, mean of triplicates; read-out: percentage of cell survival over DMSO control, HuH7. Here is the method:
as §3, §1, §2, §4, §5, §6

For series [7], the system named is MCF7. The experiment in a line: Cytotoxicity secondary screen (IC50). To be noted: Homo sapiens, 48 h exposure, mean of triplicates, NE: no effect.
For series [8], the system named is Caco-2. The experiment in a line: Cytotoxicity secondary screen (IC50). The conditions noted are these: Homo sapiens, 48 h exposure, mean of triplicates, NE: no effect. Here is the method:
as §3, §1, §2

In a further series the test system is HCT-116. The experiment in a line: Cytotoxicity secondary screen (IC50). To be noted: Homo sapiens, 48 h exposure, mean of triplicates, NE: no effect. Here is the method: as §3, §1, §2
For series [9], the system named is HuH7. The experiment in a line: Cytotoxicity primary screen (single dose). Further details: dose or concentration left out as unconfirmed. The conditions noted are these: Homo sapiens, Huh-7; 48 h exposure, mean of triplicates; read-out: percentage of cell survival over DMSO control, HuH7.

Broadly, the IC50 is the concentration needed to halve the response being measured. As for `c1ccc(Nc2ncc3ccc4ccccc4c3n2)cc1` [Compound 4a, N-phenylbenzo[h]quinazolin-2-amine], the IC50 was 1.7 to 6 µM in series [1] (against HuH-7, Caco-2, MDA-MB-468 and HCT-116 cells); 29 µM in the series with MDA-MB-231; 1.7 µM with HuH-7; 34.5 µM with PC3 [2]; > 25 µM in the series on normal human fibroblasts; 6 µM in the series with MDA-MB-468. For the same molecule, the IC50 in the series on MCF7 [7] was 13 µM; with Caco-2 [8] it was 4.7 µM; in the series on HCT-116, 4 µM. In addition, the viability at 25 µM was determined as 58% with PC3 [3]; 59% in the series with MCF7 [4]; 61% in the series on MDA231; 48% with HCT116; 56% in the series with MDA468; 60% with HuH7 [6]. The “percentage of cell survival over DMSO control, CaCo-2” value (shortened to “percentage of cell survival”) in the series on Caco-2 [5] (single dose 25 μM) was determined as 33%.

As for `COc1cccc2c1C(=O)c1c(O)c3c(c(O)c1C2=O)C[C@@](O)(C(=O)CO)C[C@@H]3O[C@H]1C[C@H](N)[C@H](O)[C@H](C)O1` [doxorubicin, reference compound], the viability in the series on HuH7 [9] amounted to 59%; in the series on PC3 [3], 42%; with MDA231, 31%; with MDA468 it was 24%. Also, the 50% inhibitory concentration (IC50) in the series on MDA-MB-231 was 0.03 µM; with HuH-7 it was 0.03 µM; in the series with PC3 [2], 0.06 µM; with MDA-MB-468, 0.03 µM; in the series with MCF7 [7], 0.07 µM; in the series on HCT-116, 0.04 µM. Besides, in the series on Caco-2 [5] (reference compound at 0.025 M (so in the source)), the “percentage of cell survival” value came out at 59%.

For the molecule `Cc1ccc(Nc2ncc3ccc4ccccc4c3n2)cc1` [Compound 4d, N-(p-tolyl)benzo[h]quinazolin-2-amine], the IC50 with MDA-MB-231 is > 25 µM; in the series with HuH-7, > 25 µM; with PC3 [2], 30 µM; with normal human fibroblasts it was > 25 µM; with MDA-MB-468, 31 µM; in the series with MCF7 [7], > 25 µM. In addition, the IC50 in the series with Caco-2 [8] was > 25 µM; in the series on HCT-116 it was 5 µM. For the same molecule, the viability at 25 µM was 65% in the series on PC3 [3]; 61% in the series with MCF7 [4]; 67% with MDA231; 54% in the series with HCT116; 72% in the series with MDA468; 85% in the series on HuH7 [6]. Moreover, in the series with Caco-2 [5] (single dose 25 μM), the “percentage of cell survival” value came out at 63%.

Take `Clc1cc(Br)cc(Nc2ncc3ccc4ccccc4c3n2)c1` [Compound 4q, N-(3-bromo-5-chlorophenyl)benzo[h]quinazolin-2-amine]: the concentration for half-maximal inhibition (IC50) in the series on MDA-MB-231 was 20 µM; with HuH-7, 16 µM; with PC3 [2] it was 19 µM; in the series on normal human fibroblasts, > 25 µM; in the series on MDA-MB-468, 19 µM; in the series with MCF7 [7] it was 14 µM. For the same molecule, the half-maximal inhibitory concentration (IC50) with Caco-2 [8] was determined as 14 µM; in the series with HCT-116, 13 µM. Also, the viability at 25 µM in the series on PC3 [3] came out at 24%; in the series with MCF7 [4] it was 73%; with MDA231, 41%; in the series with HCT116, 13%; in the series with MDA468 it was 38%; with HuH7 [6], 49%. Also, the “percentage of cell survival” value in the series with Caco-2 [5] (single dose 25 μM) was found to be 35%.

`Clc1ccccc1Nc1ncc2ccc3ccccc3c2n1` [Compound 4k, N-(2-chlorophenyl)benzo[h]quinazolin-2-amine]: the IC50 in the series on MDA-MB-231, in the series with HuH-7, in the series with PC3 [2], in the series with normal human fibroblasts, with MDA-MB-468 and in the series on MCF7 [7] was > 25 µM in each case. Further, the IC50 in the series on Caco-2 [8] and in the series with HCT-116 was > 25 µM each time. The viability at 25 µM was found to be 73% with PC3 [3]; 56% in the series with MCF7 [4]; 91% in the series on MDA231; 83% with HCT116; 93% with MDA468; 76% with HuH7 [6]. The “percentage of cell survival” value in the series on Caco-2 [5] (single dose 25 μM) came out at 61%.

For `Brc1cc(Br)cc(Nc2ncc3ccc4ccccc4c3n2)c1` [Compound 4o, N-(3,5-dibromophenyl)benzo[h]quinazolin-2-amine], the IC50 in the series on MDA-MB-231 is > 25 µM; in the series with HuH-7, 24 µM; in the series on PC3 [2] it was 21 µM; in the series with normal human fibroblasts, > 25 µM; in the series with MDA-MB-468, 20 µM; with MCF7 [7], 21 µM. The IC50 was 16 µM in the series with Caco-2 [8] and 23 µM with HCT-116. Further, the viability at 25 µM is 38% in the series on PC3 [3]; 85% in the series on MCF7 [4]; 67% with MDA231; 27% in the series with HCT116; 47% in the series with MDA468; 62% with HuH7 [6]. Moreover, the “percentage of cell survival” value in the series on Caco-2 [5] (single dose 25 μM) is 46%.

On to `Fc1cccc(Nc2ncc3ccc4ccccc4c3n2)c1` [Compound 4i, N-(3-fluorophenyl)benzo[h]quinazolin-2-amine], for which the IC50 in series [1] (on Caco-2, MDA-MB-468, HCT-116 and MCF7) is 2 to 6 µM; in the series with MDA-MB-231, 17 µM; in the series with HuH-7, 17 µM; in the series on PC3 [2], 11 µM; in the series on normal human fibroblasts, > 25 µM; with MDA-MB-468, 4 µM. Further, the figures for the half-inhibitory concentration (IC50) in the series on MCF7 [7], in the series on Caco-2 [8] and in the series with HCT-116 were 3 µM, 2 µM and 6 µM, respectively. Also, the viability at 25 µM in the series with PC3 [3] was found to be 36%; in the series on MCF7 [4] it was 59%; in the series on MDA231, 49%; in the series on HCT116 it was 11%; in the series on MDA468 it was 59%; in the series with HuH7 [6], 60%. The “percentage of cell survival” value with Caco-2 [5] (single dose 25 μM) came out at 34%.

On to `Cc1ccccc1Nc1ncc2ccc3ccccc3c2n1` [Compound 4b, N-(o-tolyl)benzo[h]quinazolin-2-amine], for which the half-maximal inhibitory concentration (IC50) with MDA-MB-231, with HuH-7, in the series with PC3 [2], in the series with normal human fibroblasts, in the series on MDA-MB-468 and with MCF7 [7] was > 25 µM throughout. Further, the concentration for half-maximal inhibition (IC50) with Caco-2 [8] and in the series on HCT-116 was > 25 µM in each case. Further, the viability at 25 µM amounted to 72% in the series with PC3 [3]; 70% with MCF7 [4]; 86% with MDA231; 79% with HCT116; 93% in the series on MDA468; 69% with HuH7 [6]. The “percentage of cell survival” value with Caco-2 [5] (single dose 25 μM) turned out to be 56%.
